The source of these data is US20080279924A1, “HLA class I A2 tumor associated antigen peptides and vaccine compositions” (priority 1999, published 2008).

One experiment relates to PBMC from healthy donors. It counts as cell-based, human.
A further experiment deals with HLA-DR molecules. To be noted: cited from earlier work.

Consider QYIKANSKFIGITE [Epitope 553.01], for which, in the experiment with PBMC from healthy donors, the “antigen concentration at which the 10,000 cpm proliferation level was reached” value was “about 10,000 ng/ml” and the “donors with primary T cell responses” value is reported as 2 out of 3. For the same substance, the “number of DR molecules bound of DR molecules tested” value in the experiment on HLA-DR molecules is given as “seven of 16”.
aKXVAAWTLKAAa-NH2 [PADRE]: in the experiment with PBMC from healthy donors, the “donors with primary T cell responses” value is “all three donors”.
